Experimental data: US20200268707A1, “METHODS OF MODULATING PROTEIN EXOCYTOSIS AND USES OF SAME IN THERAPY” (Yeda Research and Development Co. Ltd., priority 2016, published 2020)
“Also recorded” adds a separate entry of the source.

How the values were obtained:
[1] = tested on: polyubiquitin in the Golgi of HeLa cells; assay: High content immunofluorescence microscopy of polyubiquitin in drug-treated cells; assay type: cell-based, human; conditions: drugs for 2 hrs (tunicamycin 5 μg/ml, monensin 2 mM, MG-132 40 μM), vs untreated
Protocol: (§1) HEK 293, IMR-90 and HeLa cells were grown in DMEM supplemented with 10% fetal bovine serum, 1% Penicillin/streptomycin and L-glutamine (2 mmole/liter) (Biological industries) at 37° C. with 5% CO2. Drugs were introduced to cells for 2 hrs at varying concentrations. Tunicamycin (Sigma) was given at 5 μg/ml. Treatment with the glycosylation inhibitor tunicamycin is known to cause accumulation of unfolded glycoproteins in the ER which is followed by […] of these aberrant proteins. […] Monensin (Enco scientific services) was given at 2 mM and MG-132 (Biotest) at 40 μM. Monensin is an antibiotic, commercially known as Golgi-stop. This drug inhibits the transport of proteins between the medial and trans-Golgi stacks thus also inhibiting phosphorylation, addition of galactose to glycoproteins and sulfation that occur in the trans-Golgi (Griffiths et al., 1983; Rosa et al., 1992). Cell death assessment was done by trypan blue staining and counted with Countess IFM automated cell counter (Thermo Fisher). Proliferation of mammalian cells was measured by XTT assay.
HeLa cells, grown on 96-well ‘cell carrier’ plates (Perkin Elmer) were fixed in 4% paraformaldehyde (Electron microscopy sciences) and permeabilized in 0.5% triton (sigma)—PBS (biological industries). Primary antibodies were introduced for 1 hr and secondary antibodies for 30 min, both in PBS-2% BSA. Hoechst staining (Sigma) was done per product protocol. Images were acquired using the ‘Operetta’ high content screening microscope at X40 magnification and analyzed by ‘Harmony’ software (Perkin Elmer).
Constitutive and Stress-Induced Ubiquitylation of Proteins Retained in the Golgi The bioinformatics analysis of the extent of ubiquitylation in the Golgi prompted us to confirm the prediction for Golgi ubiquitylation in live mammalian cells. To this end, a high content screening microscopy system was utilized to assess and quantify the levels of polyubiquitylation in the Golgi apparatus under various stress inducing drug treatments. For this assay, drugs known to induce cell stress by different pathways were selected. Immunofluorescence images of HeLa cells stained for the Golgi marker giantin and poly-ubiquitin show Golgi localized polyubiquitylated puncta, indicating a basal level of protein steady state polyubiquitylation in the Golgi (FIG. 3A). Proteasomal inhibition is known to cause the accumulation of polyubiquitylated proteins that are bound for proteasomal degradation in the cell (37).
Next, the present inventors examined whether or not this accumulation also occurs in the Golgi, following treatment with the proteasomal inhibitor MG-132. […] This increase in polyubiquitylated proteins in the Golgi points to the possibility that as in the case of ERAD, polyubiquitylated proteins that are bound for degradation accumulate in the Golgi as well as in the ER upon proteasomal inhibition. Treatment with the glycosylation inhibitor tunicamycin is known to cause accumulation of unfolded glycoproteins in the ER which is followed by poly-ubiquitylation and degradation of these aberrant proteins. […] Monensin is an antibiotic, commercially known as Golgi-stop. This drug inhibits the transport of proteins between the medial and trans-Golgi stacks thus also inhibiting phosphorylation, addition of galactose to glycoproteins and sulfation that occur in the trans-Golgi (40, 41). […]

HEK293 cells = assay: Live/dead ratio, trypan blue and automated cell counter; assay type: cell-based, human; conditions: HEK293, non-secretory; 2 μM monensin over 2 days
Protocol: (§2) Various cell lines treated with 2 μM of monensin over 2 days show increased cell death. Cells were counted using countess 2 automated cell counter to determine live/dead ratios.
as §1
(§3) Accumulation of proteins in cells is highly cytotoxic. This cytotoxicity is potentially higher in highly secretory cells, wherein a large mass of proteins is constantly moving through the Golgi apparatus. […] The present inventors examined the long-term effect of Golgi traffic inhibition on secretory cells. Four human cell lines were selected, two that are non-secretory (HEK293 and HeLa) and two secretory cell lines (HepG2 and RPMI 8226) and assessed their live/dead ratios over 2 days of treatment with monensin.

HeLa cells = assay: as above; assay type: cell-based, human; conditions: non-secretory, 2 μM monensin over 2 days
Protocol: as §2, §1, §3

HepG2 cells = assay: as above; assay type: cell-based, human; conditions: HepG2, secretory; 2 μM monensin over 2 days
Protocol: as §2, §1, §3

RPMI 8226 cells = assay: as above; assay type: cell-based, human
Protocol: as §2
(A) Quantification of live/dead cells following 48 hours of monensin treatment (2 μM). (B) Quantification of cell death of RPMI-8226 cells over 3 days of treatment with monensin […]. (C) Western blot against K48-linked polyubiquitin chains of Golgi fractions collected from RPMI 8226 cells either untreated or treated with monensin for 2 hrs. (D) XTT assay of untreated HeLa cells following siRNA mediated knockdowns as indicated Pvalue(siPSMD6+siHACE1)=0.002. […] (H) FACS analysis and quantification of multiple myeloma cells (MM) and normal B cells (BC) in spleens of control vs. monensin-treated mice Pvalue(MM monensin)=0.008. (I) FACS analysis and quantification of multiple myeloma cells (MM) and normal B cells (BC) in bone marrow of control vs. monensin-treated mice. […]
HEK 293, IMR-90 and HeLa cells were grown in DMEM supplemented with 10% fetal bovine serum, 1% Penicillin/streptomycin and L-glutamine (2 mmole/liter) (Biological industries) at 37° C. with 5% CO2. […] Cell death assessment was done by trypan blue staining and counted with Countess IFM automated cell counter (Thermo Fisher). Proliferation of mammalian cells was measured by XTT assay. […]

CD-138 positive MM cells = assay: Apoptosis (Annexin V) in bone marrow cells flushed from mice injected with 5TGM1 cells; assay type: cell-based; conditions: 24 hours
Protocol: The effect of monensin was tested in MM mice in vivo. To this end bone marrow cells were flushed from C57BL/KalwRij mice injected with 5TGM1 cells. Cells harvested from these mice included MM cells and others, found normally in mouse bone marrow.

MRL/LPR mice = assay: Mouse model of systemic lupus erythematosus; assay type: in vivo
Excerpt: FIGS. 14A-14B show the effect of monensin in treatment of systemic lupus erythematosus. […] Furthermore, monensin treated mice were more relaxed when compared to mock (0.35% ethanol) treated mice.

CC[C@@]1([C@@H]2O[C@@H]([C@H]3O[C@@](O)(CO)[C@H](C)C[C@@H]3C)C[C@@H]2C)CC[C@H]([C@]2(C)CC[C@]3(C[C@H](O)[C@@H](C)[C@@H]([C@@H](C)[C@@H](OC)[C@H](C)C(=O)O)O3)O2)O1 [monensin]
Golgi-localized polyubiquitin [1]: increase in Golgi localized poly-ubiquitin, to slightly lower levels than those measured with tunicamycin
cell death (live/dead ratio) (HEK293 cells): little effect
cell death (live/dead ratio) (HeLa cells): little effect; also recorded: largely insensitive
cell death (live/dead ratio) (HepG2 cells): more susceptible to cell death
cell death (live/dead ratio) (RPMI 8226 cells; RPMI 8226 multiple myeloma, secretory, 2 μM monensin over 2 days): greatest; also recorded: particularly sensitive
MM cells killed (RPMI 8226 cells; RPMI-8226 cells, 3 days of treatment with monensin): 99%
cell death of CD-138 positive MM cells (CD-138 positive MM cells): comparable to that of bortezomib
behaviour compared to mock treated mice (MRL/LPR mice; 80 μM monensin in drinking water): more relaxed
skin lesions (MRL/LPR mice; 80 μM monensin in drinking water from 14 weeks old): abolished the appearance of skin lesions; also recorded: do not exhibit skin lesions
splenomegaly / spleen weight (MRL/LPR mice; 80 μM monensin in drinking water, vs mock (0.35% ethanol)): significantly reduced splenomegaly; also recorded: do not show an aberrant increase in weight
